Marks after values point to notes of the source that are not given here.
How the values were obtained:
Assay type in all cases: in vivo
C57BL/KsBom-db/db mice [1] = experiment: Oral glucose tolerance test (OGTT) on day 10 in db/db mice; settings: for Blood glucose profile, 0 min post glucose load / Blood glucose % change compared to control, 0 min post glucose load: OGTT day 10, 0 min; for Blood glucose profile, 30 min post glucose load / Blood glucose % change compared to control, 30 min post glucose load: OGTT day 10, 30 min; for Blood glucose profile, 60 min post glucose load / Blood glucose % change compared to control, 60 min post glucose load: OGTT day 10, 60 min; for Blood glucose profile, 90 min post glucose load / Blood glucose % change compared to control, 90 min post glucose load: OGTT day 10, 90 min; for Blood glucose profile, 120 min post glucose load / Blood glucose % change compared to control, 120 min post glucose load: OGTT day 10, 120 min; for Blood glucose profile, −30 min post glucose load / Blood glucose % change compared to control, −30 min post glucose load: OGTT day 10, −30 min; for Comparative antihyperglycemic activity: Day 10 (OGTT): in % (unit assumed)
Experimental: (§1) C57BL/KsBom-db/db mice (12-18 weeks old), weighing around 35+g bred in the animal house of CDRI, Lucknow, were used in the present experiments. The mice were housed in groups of 3 to 5 (same sex) in a room controlled for temperature (23±2.0 ° C.) and 12/12 hours light/dark cycle (lights on at 6.00 am). Body weight of each animal was measured daily from day 1 to day 10 of the experiment. All animals had free access to fresh water and normal pellet diet except on the day of the postprandial protocol (day 6) and during the overnight fast before the OGTT on day 10. The animals always had access to water during experimental periods. Blood glucose was checked every morning up till day 10. On day 10 an oral glucose tolerance test (OGTT) was performed after an overnight fasting. Blood glucose was measured at −30.0 min and test compounds were administered. The blood glucose was again measured at 0 min just post treatment and at this juncture glucose solution was given at a dose of 3 gm/kg to all the groups including the vehicle treated group. The blood glucose levels were checked at 30 min, 60 min, 90 min and 120 min post glucose administration. The data was analyzed for its significance on Prism software.

C57BL/KsBom-db/db mice [2] = experiment: Serum lipid profile of treated db/db mice (antidyslipidemic activity); settings: 25 mg/kg
Experimental: as §1

C57BL/KsBom-db/db mice [3] = experiment: as above
[4] = db/db mice, 10 mg/kg, statistically insignificant

CC(C)(C)NC[C@H](O)COc1ccc2c(=O)cc(-c3cc(OCc4ccccc4)cc(OCc4ccccc4)c3)oc2c1 [S-002-853 (S), (S)-(+)-7-(3-tert-Butylamino-2-hydroxypropoxy)-3′,5′-dibenzyloxyflavone]
Blood glucose profile, 0 min post glucose load (C57BL/KsBom-db/db mice [1]; 10 mg/kg): 9.23 ± 3.10 mM | Blood glucose % change compared to control, 0 min post glucose load (C57BL/KsBom-db/db mice [1]; 10 mg/kg, vs sham): −25.7% | Blood glucose profile, 30 min post glucose load (C57BL/KsBom-db/db mice [1]; 10 mg/kg): 19.3 ± 5.52 mM | Blood glucose % change compared to control, 30 min post glucose load (C57BL/KsBom-db/db mice [1]; 10 mg/kg, vs sham): −32.8% | Blood glucose profile, 60 min post glucose load (C57BL/KsBom-db/db mice [1]; 10 mg/kg): 18.4 ± 5.39 mM | Blood glucose % change compared to control, 60 min post glucose load (C57BL/KsBom-db/db mice [1]; 10 mg/kg, vs sham): −27.2% | Blood glucose profile, 90 min post glucose load (C57BL/KsBom-db/db mice [1]; 10 mg/kg): 12.1 ± 3.81 mM | Blood glucose % change compared to control, 90 min post glucose load (C57BL/KsBom-db/db mice [1]; 10 mg/kg, vs sham): −26.9% | Blood glucose profile, 120 min post glucose load (C57BL/KsBom-db/db mice [1]; 10 mg/kg): 9.23 ± 3.10 mM | Blood glucose % change compared to control, 120 min post glucose load (C57BL/KsBom-db/db mice [1]; 10 mg/kg, vs sham): −11.7% | Blood glucose profile, −30 min post glucose load (C57BL/KsBom-db/db mice [1]; 10 mg/kg): 8.37 ± 2.98 mM | Blood glucose % change compared to control, −30 min post glucose load (C57BL/KsBom-db/db mice [1]; 10 mg/kg, vs sham): −23.9% | effect of 10 days treatment on glucose tolerance (C57BL/KsBom-db/db mice [1]; 10 mg/kg, not statistically significant): around 27.6% | Blood glucose profile, 0 min post glucose load (C57BL/KsBom-db/db mice [1]; 25 mg/kg): 4.81 ± 0.35 mM | Blood glucose % change compared to control, 0 min post glucose load (C57BL/KsBom-db/db mice [1]; 25 mg/kg, vs sham): −41.8% | Blood glucose profile, 30 min post glucose load (C57BL/KsBom-db/db mice [1]; 25 mg/kg): 17.8 ± 1.24 mM | Blood glucose % change compared to control, 30 min post glucose load (C57BL/KsBom-db/db mice [1]; 25 mg/kg, vs sham): −38.6% | Blood glucose profile, 60 min post glucose load (C57BL/KsBom-db/db mice [1]; 25 mg/kg): 16.3 ± 1.82 mM | Blood glucose % change compared to control, 60 min post glucose load (C57BL/KsBom-db/db mice [1]; 25 mg/kg, vs sham): −48.3% | Blood glucose profile, 90 min post glucose load (C57BL/KsBom-db/db mice [1]; 25 mg/kg): 13.0 ± 1.66 mM | Blood glucose % change compared to control, 90 min post glucose load (C57BL/KsBom-db/db mice [1]; 25 mg/kg, vs sham): −45.5% | Blood glucose profile, 120 min post glucose load (C57BL/KsBom-db/db mice [1]; 25 mg/kg): 8.83 ± 0.72 mM | Blood glucose % change compared to control, 120 min post glucose load (C57BL/KsBom-db/db mice [1]; 25 mg/kg, vs sham): −58.2% | Blood glucose profile, −30 min post glucose load (C57BL/KsBom-db/db mice [1]; 25 mg/kg): 4.57 ± 0.30 mM | Blood glucose % change compared to control, −30 min post glucose load (C57BL/KsBom-db/db mice [1]; 25 mg/kg, vs sham): −43.5% | effect of 10 days treatment on glucose tolerance (overall improvement in OGTT) (C57BL/KsBom-db/db mice [1]; 25 mg/kg, vs sham): around 45.3% | Comparative antihyperglycemic activity: Day 10 (OGTT) (C57BL/KsBom-db/db mice [1]; test dose 10 mg/kg): 27.6* | Comparative antihyperglycemic activity: Day 10 (OGTT) (C57BL/KsBom-db/db mice [1]; test dose 25 mg/kg): 45.3** | Serum lipid profile: Cholesterol (C57BL/KsBom-db/db mice [2]): 185 ± 51.4 mg/dL | Serum lipid profile: HDL-Chol (C57BL/KsBom-db/db mice [2]): 49.5 ± 8.36 mg/dL | Serum lipid profile: Triglycerides (C57BL/KsBom-db/db mice [2]): 115 ± 2.82 mg/dL | Cholesterol % change compared to control (C57BL/KsBom-db/db mice [2]; vs sham): −21.8% | HDL-Chol % change compared to control (C57BL/KsBom-db/db mice [2]; vs sham): +33.2% | Triglycerides % change compared to control (C57BL/KsBom-db/db mice [2]; vs sham): −14.5% | enhancement of HDL-C as compared to the racemic compound (C57BL/KsBom-db/db mice [3]; 25 mg/kg body weight): more than two folds | Serum lipid profile: Cholesterol (C57BL/KsBom-db/db mice [3]; db/db mice, 10 mg/kg): 87.5 ± 3.00 mg/dL | Serum lipid profile: HDL-Chol (C57BL/KsBom-db/db mice [3]; db/db mice, 10 mg/kg): 66.4 ± 2.87 mg/dL | Serum lipid profile: Triglycerides (C57BL/KsBom-db/db mice [3]; db/db mice, 10 mg/kg): 110 ± 4.08 mg/dL | Cholesterol % change compared to control (C57BL/KsBom-db/db mice [3]; db/db mice, 10 mg/kg, vs sham): −16.3% | HDL-Chol % change compared to control (C57BL/KsBom-db/db mice [3]; db/db mice, 10 mg/kg, vs sham): +17.4% | Triglycerides % change compared to control (C57BL/KsBom-db/db mice [3]; db/db mice, 10 mg/kg, vs sham): −17.9% | elevation in HDL-cholesterol level than control (C57BL/KsBom-db/db mice [3]; [4]): +17.4% | lowering of serum cholesterol (C57BL/KsBom-db/db mice [3]; [4]): around 16.3% | lowering of serum triglycerides (C57BL/KsBom-db/db mice [3]; [4]): ~17.9% | decrease in LDL-cholesterol level (C57BL/KsBom-db/db mice [3]; db/db mice, 25 mg/kg): around 29.4% | elevation in HDL-cholesterol level than control (C57BL/KsBom-db/db mice [3]; db/db mice, 25 mg/kg): 33.2% | lowering of serum cholesterol (C57BL/KsBom-db/db mice [3]; db/db mice, 25 mg/kg): around 21.8% | lowering of serum triglycerides (C57BL/KsBom-db/db mice [3]; db/db mice, 25 mg/kg): ~14.5%

Reference: patent publication US20110077294A1, “R-(-) / S-(+)-7-[3-N SUBSTITUTED AMINO-2 HYDROXYPROPOXY] FLAVONES” (priority 2006, published 2011)
